Assay results: patent US20240139192A1, “METHODS AND COMPOSITIONS COMPRISING A BRAF INHIBITOR AND A MEK INHIBITOR” (Hoffmann-La Roche Inc., priority 2021, published 2024)

What was measured:
[1] = target: BRAF (Homo sapiens, UniProt P15056); experiment: biochemical
[2] = target: BRAF V600E (Homo sapiens, UniProt P15056, V600E); experiment: biochemical
[3] = system: P-ERK in A375 NRAS Q61K cells; experiment: Western Blot analysis of phosphorylated ERK in A375 NRAS Q61K cells; assay type: cell-based; conditions: 1 h, alone or with 10 nM Cobimetinib, compared with Encorafenib or Encorafenib/Cobimetinib (FIG. 1)
Description: Cell lines were obtained from ATCC, maintained in humidified incubators at 5% CO2 in standard conditions and passaged twice a week.
The A375 cell line presenting BRAF V600E and the RAF dimer inducing mutation NRAS Q61K was utilized to model a mechanism of resistance to BRAFi and BRAFi/MEKi combinations.

[4] = target: CRAF (Homo sapiens, UniProt P04049); experiment: biochemical
[5] = system: P-ERK in A375 cells (V600E mutated BRAF); experiment: HTRF assay for P-ERK determination in A375 cells; assay type: cell-based; conditions: Homo sapiens, A-375; A375 cell line, 1 hour drug incubation; read-out: pERK IC50 A375
Description: DMEM no-phenol red medium supplemented with L-glutamine was purchased from (Thermo Fisher Scientific). Fetal bovine serum (FBS) was purchased from VWR. […] 384-well microplates were purchased from Greiner Bio-One, 384-well, (With Lid, HiBase, Low volume cat 784-080).
ERK 1,2 phosphorylation (terminal member of the phosphorylation cascade of the MAPK pathway) is hereafter reported as main readout for the activation status of the MAPK pathway.
In order to allow proper data normalization control wells without drug treatment reported are always included in each plate (according to manufacturer's instruction):
The plate is then centrifuged at 300 rcf for 30 second, sealed to prevent evaporation and incubated overnight in the dark at room temperature.
The plate is then analyzed and fluorescence emission value collected through a Pherastast FSX (BMG Labtech) apparatus at […].
Data are normalized considering the average of the ratio (blank subtracted) derived by DMSO only treated cells as 100% and by considering the average of the ratio (blank subtracted) derived by 10 μM dabrafenib treated cells as 0%. Mean of the normalized points are fitted with sigmoidal curve and IC50 determined. […] Kd is the dissociation constant in the biochemical experiments.

[6] = target: lymphocyte-specific tyrosine protein kinase (LCK) (Homo sapiens, UniProt P06239); experiment: biochemical
[7] = target: C-terminal Src kinase (CSK) (Homo sapiens, UniProt P41240); experiment: biochemical

Chain of BRAF (P15056 whole entry): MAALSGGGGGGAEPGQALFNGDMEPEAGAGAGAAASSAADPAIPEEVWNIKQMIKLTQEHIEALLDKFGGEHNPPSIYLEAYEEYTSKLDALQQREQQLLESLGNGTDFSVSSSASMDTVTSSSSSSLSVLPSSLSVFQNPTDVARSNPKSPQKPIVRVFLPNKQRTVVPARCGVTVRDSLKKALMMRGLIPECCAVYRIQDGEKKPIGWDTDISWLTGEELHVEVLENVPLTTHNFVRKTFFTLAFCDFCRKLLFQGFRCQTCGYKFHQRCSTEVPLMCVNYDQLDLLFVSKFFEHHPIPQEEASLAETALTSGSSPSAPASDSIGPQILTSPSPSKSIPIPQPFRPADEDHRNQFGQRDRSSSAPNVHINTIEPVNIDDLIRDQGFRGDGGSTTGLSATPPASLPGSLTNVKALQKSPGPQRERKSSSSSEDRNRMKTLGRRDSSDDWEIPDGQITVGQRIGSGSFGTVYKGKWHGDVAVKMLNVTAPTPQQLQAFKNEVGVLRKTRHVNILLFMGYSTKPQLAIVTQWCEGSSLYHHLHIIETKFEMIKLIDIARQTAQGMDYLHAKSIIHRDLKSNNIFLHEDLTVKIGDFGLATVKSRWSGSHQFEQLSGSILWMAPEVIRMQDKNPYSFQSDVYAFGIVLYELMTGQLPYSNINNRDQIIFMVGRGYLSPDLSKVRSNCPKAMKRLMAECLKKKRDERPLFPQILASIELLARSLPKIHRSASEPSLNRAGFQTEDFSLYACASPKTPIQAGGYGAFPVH
Chain of BRAF V600E (P15056 whole entry V600E): as the sequence (P15056 whole entry) above, with V600E counted along it
Chain of lymphocyte-specific tyrosine protein kinase (LCK) (P06239 whole entry): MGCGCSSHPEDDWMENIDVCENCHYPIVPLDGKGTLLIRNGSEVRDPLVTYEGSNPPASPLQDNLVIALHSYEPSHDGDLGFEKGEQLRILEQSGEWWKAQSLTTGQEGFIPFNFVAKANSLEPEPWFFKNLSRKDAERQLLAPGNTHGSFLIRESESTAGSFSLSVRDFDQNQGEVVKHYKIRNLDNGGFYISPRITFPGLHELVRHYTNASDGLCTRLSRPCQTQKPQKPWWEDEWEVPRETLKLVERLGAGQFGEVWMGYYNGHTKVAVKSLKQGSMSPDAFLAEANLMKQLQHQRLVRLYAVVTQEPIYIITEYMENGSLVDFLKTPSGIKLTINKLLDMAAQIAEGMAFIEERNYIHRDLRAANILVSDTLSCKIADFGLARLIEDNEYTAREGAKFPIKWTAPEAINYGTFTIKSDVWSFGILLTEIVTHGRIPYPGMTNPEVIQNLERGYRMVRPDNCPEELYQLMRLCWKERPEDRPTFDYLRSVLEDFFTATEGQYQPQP
Chain of CRAF (P04049 whole entry): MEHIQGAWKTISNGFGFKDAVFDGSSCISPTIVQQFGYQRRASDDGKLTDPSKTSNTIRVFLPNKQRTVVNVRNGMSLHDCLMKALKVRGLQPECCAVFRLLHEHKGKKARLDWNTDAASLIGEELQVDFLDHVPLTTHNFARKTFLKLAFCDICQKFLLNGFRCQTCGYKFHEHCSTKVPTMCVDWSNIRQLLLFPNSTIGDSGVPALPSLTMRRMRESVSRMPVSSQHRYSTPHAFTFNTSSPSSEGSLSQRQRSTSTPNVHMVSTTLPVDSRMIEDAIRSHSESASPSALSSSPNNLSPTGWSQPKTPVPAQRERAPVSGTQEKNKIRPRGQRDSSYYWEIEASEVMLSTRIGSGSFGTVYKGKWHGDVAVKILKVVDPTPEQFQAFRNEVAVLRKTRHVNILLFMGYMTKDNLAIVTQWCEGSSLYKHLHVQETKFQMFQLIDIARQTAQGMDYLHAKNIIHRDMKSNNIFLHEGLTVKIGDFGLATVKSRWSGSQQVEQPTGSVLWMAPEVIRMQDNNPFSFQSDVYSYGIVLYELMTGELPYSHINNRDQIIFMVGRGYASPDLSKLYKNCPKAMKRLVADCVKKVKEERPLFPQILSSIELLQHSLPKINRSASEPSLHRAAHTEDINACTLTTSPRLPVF

Row | Kd [1] | Kd [2] | Kd [4] | IC50 [5] | Kd [6] | Kd [7] | Compound | P-ERK inhibition (Western Blot) [3]
1 | 0.6 nM | 1.2 nM | 1.7 nM | 6.9 nM | 40000 nM | 23300 nM | Cn1cnc2ccc(Oc3c(F)ccc(NS(=O)(=O)N4CC[C@@H](F)C4)c3C#N)cc2c1=O [(Ia), (3R)-N-[2-cyano-4-fluoro-3-(3-methyl-4-oxo-quinazolin-6-yl)oxy-phenyl]-3-fluoro-pyrrolidine-1-sulfonamide] | superior P-ERK inhibition compared to Encorafenib
2 | 1.3 nM | 0.9 nM | 1.2 nM | 10.6 nM | 20100 nM | 9160 nM | Cn1cnc2ccc(Oc3c(F)ccc(NS(=O)(=O)N4CC[C@H](F)C4)c3C#N)cc2c1=O [(Ib), (3S)-N-[2-cyano-4-fluoro-3-(3-methyl-4-oxo-quinazolin-6-yl)oxy-phenyl]-3-fluoro-pyrrolidine-1-sulfonamide] | –
